# According to patent US11059792B2, “Imidazolyl tricyclic enones as antioxidant inflammation modulators” (REATA PHARMACEUTICALS, INC., priority 2015, dated 2021):
# System: RAW 264.7 cells
# Assay: Nitric oxide suppression assay (IFNγ-induced NO production, Griess detection)
# Assay type: cell-based
# Details: RAW264.7, RAW 264.7 mouse macrophages, 2 h compound pre-treatment, 20 ng/mL interferon gamma, ~18 h
# Procedure: RAW 264.7, a mouse macrophage cell line, was obtained from American Type Culture Collection (Manassas Va.) and maintained in the log phase of growth in Dulbecco's Modified Eagle's Medium (DMEM), 10% heat inactivated fetal calf serum and 100 units/mL antibiotic-antimycotic (AA). Cells were cultured and maintained in a humidified incubator at 37° C. under 5% CO2 and 95% air. Cells were sub-cultured every 3 days by scraping and were not used beyond passage 20. All cell culture supplies were obtained from Life Technologies (Grand Island, N.Y.).
# RAW 264.7 cells were plated 1 day in advance of experiment at a concentration of 80,000 cells/well onto CellBIND® 96 well plates (Corning, N.Y.) in a total volume of 100 μL. The next day, pre-treat cells with compounds (from 3 μM to 0.3 nM serially diluted in a 10 point curve) from a 10× stock by adding 10 μL per well in complete DMEM media containing 10% fetal calf serum. The plates were centrifuged for 3 minutes at 400×g at room temperature followed by 2 hour incubation at 37° C. The cells were then incubated overnight at 37° C. with 10 μL of the insult, interferon gamma (R&D Systems, Minneapolis, Minn.), from a 10× stock for a final concentration of 20 ng/mL. The plates were centrifuged for 3 minutes at 400×g at room temperature followed by ˜18 hour incubation at 37° C. The following day, transfer 50 μL cell culture supernatant from each well into a clear bottom 96 well plate and follow the instructions from Promega's Griess Detection Kit #G2930 (Madison, Wis.) which involves the addition of 50 μL of the provided sulfanilamide solution for a 5-10 minute incubation at room temperature. Next add 50 μL of the provided N-1-napthylethylenediamine dihydrochloride (NED) solution for a 5-10 minute incubation at room temperature and protected from light. If any air bubbles were introduced into the well, the plates need to be centrifuged for 5 minutes at 400×g at room temperature to avoid interference with absorbance readings. The plates were read for absorbance within 30 minutes with a filter between 520 nm and 550 nm.
# For the ability of compounds to suppress the increase in nitric oxide release, the percent maximal intensity of nitric oxide detected in each well was normalized to that induced by the peak value for 20 ng/mL of interferon gamma alone and plotted against the compound concentration to calculate IC50 values and to control for plate-to-plate variability. Concentration-response data were analyzed using GraphPad Prism (San Diego, Calif.); the IC50 values were derived from a single curve fit to the mean data of n=2-3, in duplicates.
# All compounds were dissolved in dimethyl sulfoxide at 10 mM stock solutions and tested at a concentration that the dimethyl sulfoxide levels never exceeded 1%.
row,IC50,Structure (SMILES)
1,151 nM,C[C@@H]1C(=O)C(C#N)=C[C@]2(C)c3nc(-c4ccccc4)[nH]c3CC[C@@H]12 [Compound T1]
2,471 nM,C[C@@H]1C(=O)C(C#N)=C[C@]2(C)c3nc(-c4ccccc4)n(-c4ccccc4)c3CC[C@@H]12 [Compound T2]
3,40.8 nM,Cc1nc2c(n1-c1ccccc1)CC[C@H]1[C@H](C)C(=O)C(C#N)=C[C@]21C [Compound T3]
4,662 nM,CC(=O)OCCCc1cccc(-n2c(-c3ccccc3)nc3c2CC[C@H]2[C@H](C)C(=O)C(C#N)=C[C@]32C)c1 [Compound T4]
5,19.4 nM,Cc1nc2c(n1-c1cccc(CCCO)c1)CC[C@H]1[C@H](C)C(=O)C(C#N)=C[C@]21C [Compound T6]
6,91.8 nM,Cc1nc2c(n1-c1cccc(-c3ccccc3)c1)CC[C@H]1[C@H](C)C(=O)C(C#N)=C[C@]21C [Compound T7]
7,28.8 nM,C[C@@H]1C(=O)C(C#N)=C[C@]2(C)c3nc(-c4ccccc4)n(-c4nnn(C)n4)c3CC[C@@H]12 [Compound T8]
8,22.7 nM,C[C@@H]1C(=O)C(C#N)=C[C@]2(C)c3nc(-c4cnn(C)c4)n(-c4ccccc4)c3CC[C@@H]12 [Compound T9]
9,62.8 nM,Cc1ccccc1-n1c(C)nc2c1CC[C@H]1[C@H](C)C(=O)C(C#N)=C[C@]21C [Compound T10]
10,93.2 nM,C[C@@H]1C(=O)C(C#N)=C[C@]2(C)c3nc(CCOCc4ccccc4)n(-c4ccccc4)c3CC[C@@H]12 [Compound T11]
11,11.3 nM,C[C@@H]1C(=O)C(C#N)=C[C@]2(C)c3nc(CCO)n(-c4ccccc4)c3CC[C@@H]12 [Compound T12]
12,233 nM,Cc1nc2c(n1-c1cnn(C)c1)CC[C@H]1[C@H](C)C(=O)C(C#N)=C[C@]21C [Compound T13]
13,222 nM,COC(=O)CCc1cccc(-n2c(C)nc3c2CC[C@H]2[C@H](C)C(=O)C(C#N)=C[C@]32C)c1 [Compound T14]
14,> 3000 nM,Cc1nc2c(n1-c1cccc(CCC(=O)O)c1)CC[C@H]1[C@H](C)C(=O)C(C#N)=C[C@]21C [Compound T15]
15,132 nM,C[C@@H]1C(=O)C(C#N)=C[C@]2(C)c3nc(-c4cnn(C)c4)n(-c4nnn(C)n4)c3CC[C@@H]12 [Compound T16]
16,120 nM,C[C@@H]1C(=O)C(C#N)=C[C@]2(C)c3nc(-c4ccccc4)n(-c4cnn(C)c4)c3CC[C@@H]12 [Compound T17]
17,693 nM,CNC(=O)CCc1cccc(-n2c(C)nc3c2CC[C@H]2[C@H](C)C(=O)C(C#N)=C[C@]32C)c1 [Compound T18]
18,82.7 nM,Cc1nc2c(n1-c1cccc(CCC(=O)N(C)C)c1)CC[C@H]1[C@H](C)C(=O)C(C#N)=C[C@]21C [Compound T19]
19,1000 nM,Cc1nc2c(n1-c1cccc(CCC(N)=O)c1)CC[C@H]1[C@H](C)C(=O)C(C#N)=C[C@]21C [Compound T20]
20,407 nM,COCCCn1c(C)nc2c1CC[C@H]1[C@H](C)C(=O)C(C#N)=C[C@]21C [Compound T21]
21,47.8 nM,Cc1nc2c(n1-c1cccc(-c3cncnc3)c1)CC[C@H]1[C@H](C)C(=O)C(C#N)=C[C@]21C [Compound T22]
22,31.1 nM,C[C@@H]1C(=O)C(C#N)=C[C@]2(C)c3nc(Br)n(-c4ccccc4)c3CC[C@@H]12 [Compound T23]
23,48.8 nM,C[C@@H]1C(=O)C(C#N)=C[C@]2(C)c3nc(-c4ccncc4)n(-c4ccccc4)c3CC[C@@H]12 [Compound T24]
24,15.4 nM,Cc1ccccc1-c1nc2c(n1-c1nnn(C)n1)CC[C@H]1[C@H](C)C(=O)C(C#N)=C[C@]21C [Compound T25]
25,27.7 nM,C[C@@H]1C(=O)C(C#N)=C[C@]2(C)c3nc(C#N)n(-c4ccccc4)c3CC[C@@H]12 [Compound T26]
26,53.1 nM,C[C@@H]1C(=O)C(C#N)=C[C@]2(C)c3nc(C(N)=O)n(-c4ccccc4)c3CC[C@@H]12 [Compound T27]
27,138 nM,Cc1nc2c(n1-c1ccccc1)CC[C@H]1[C@H](C)C(=O)C(C(N)=O)=C[C@]21C [Compound T28]
28,136 nM,Cc1nc2c(n1-c1ccc(-c3ccccc3)cc1)CC[C@H]1[C@H](C)C(=O)C(C#N)=C[C@]21C [TS]
